Several values for one entry are separate records, joined by “and”; a condition that tells them apart may be missing. Equal values may be shown once. No end group written: not given here.
Assays:
[1] = test system: GIPR; details: cited from earlier work
[2] = test system: GLP‐1R/GIPR heteromer; type: cell-based, human; details: 1 μM ligand; HEK‐293, fixed ratio of GLP‐1R‐Nluc and GIPR‐SYFP2; mean ± SEM, at least three independent experiments
[3] = target: GIPR‐Nluc (human) (UniProt P48546); experiment: FRET or BRET
Chain of UniProt P48546 (P48546 22-466): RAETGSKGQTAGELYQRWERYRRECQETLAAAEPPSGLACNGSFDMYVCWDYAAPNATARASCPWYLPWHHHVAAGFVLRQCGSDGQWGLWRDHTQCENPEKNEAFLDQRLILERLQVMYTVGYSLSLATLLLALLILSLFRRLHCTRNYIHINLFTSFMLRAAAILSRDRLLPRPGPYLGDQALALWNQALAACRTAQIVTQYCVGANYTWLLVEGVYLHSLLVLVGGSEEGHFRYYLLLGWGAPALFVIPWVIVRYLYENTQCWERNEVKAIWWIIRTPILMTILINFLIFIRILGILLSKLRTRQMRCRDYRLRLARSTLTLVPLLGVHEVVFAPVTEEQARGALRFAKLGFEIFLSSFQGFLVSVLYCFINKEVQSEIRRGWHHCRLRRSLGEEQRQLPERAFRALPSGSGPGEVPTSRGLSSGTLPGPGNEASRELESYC

[4] = target: GLP‐1R‐Nluc (human) (UniProt P43220); experiment: FRET or BRET
Chain of UniProt P43220 (P43220 24-463): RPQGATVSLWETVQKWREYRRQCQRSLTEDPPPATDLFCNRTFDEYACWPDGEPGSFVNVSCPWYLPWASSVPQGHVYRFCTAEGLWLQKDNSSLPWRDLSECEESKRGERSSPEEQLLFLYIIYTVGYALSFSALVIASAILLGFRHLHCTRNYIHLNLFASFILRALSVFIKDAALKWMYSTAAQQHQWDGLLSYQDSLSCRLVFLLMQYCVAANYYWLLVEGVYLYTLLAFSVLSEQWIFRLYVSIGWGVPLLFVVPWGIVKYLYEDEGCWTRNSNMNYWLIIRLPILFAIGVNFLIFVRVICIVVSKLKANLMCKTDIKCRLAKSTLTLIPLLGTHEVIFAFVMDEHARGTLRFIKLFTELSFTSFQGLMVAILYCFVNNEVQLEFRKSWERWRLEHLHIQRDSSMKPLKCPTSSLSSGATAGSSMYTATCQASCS

pEC50 of the agonist GLP-1 for recruitment [4]	Substance	Change in BRET ratio vs non‐stimulated cells [2]	other results
–	(Pro3)GIP: previously reported to be a GIPR antagonist but subsequently shown to be a low potency GIPR agonist; custom synthesized (YAPGTFISDYSIAMDKIHQQDFVNWLLAQKGKKNDWKHNITQ; Gastric inhibitory polypeptide; UniProt P09681 52-93, looked up, variant E3P)	no effect on BRET ratio	Activity at GIPR [1]: low potency GIPR agonist
–	GLP‐1 (9‐36): GLP‐1 metabolite, metabolic breakdown product of GLP‐1 (EGTFTSDVSSYLEGQAAKEFIAWLVKGR-NH2; UniProt P01275 100-127, looked up, fragment)	significantly increased the BRET ratio (p < .001)	–
7.8 -log EC50/M and 7.7 -log EC50/M and 7.9 -log EC50/M	NES‐Venus‐mGαq	–	pEC50 of the agonist GIP for recruitment [3]: 8 -log EC50/M and 7.6 -log EC50/M and 7.8 -log EC50/M
7.8 -log EC50/M and 7.5 -log EC50/M and 7.7 -log EC50/M	NES‐Venus‐mGαs	–	–
–	Oxyntomodulin: posttranslational product of proglucagon and an endogenous dual GLP‐1R/glucagon receptor agonist (HSQGTFTSDYSKYLDSRRAQDFVQWLMNTKRNRNNIA; Oxyntomodulin; UniProt P01275 53-89, looked up)	no effect on BRET ratio	–
–	exendin‐4 (9–39)	no significant effect on BRET ratio	–

— PMC9523454 (Pharmacology Research & Perspectives, 2022)
